Blank lines part the entries; values can stand above or below the compound they belong to.
Columns and labels:
[1] = species on record: Mus musculus; experiment: Effective concentration required for inhibition of interleukin-6 in mouse thioglycolate-elicited peritoneal exudate cell line using 79% radiolabeled Dexamethasone; format: functional
[2] = tested on: A549; experiment: Effective concentration for inhibition of interleukin-6 in human A549 lung carcinoma cell line using 32% radiolabeled Dexamethasone; format: functional, cell-based
[3] = target: T1, Glucocorticoid receptor (Homo sapiens, UniProt P04150); experiment: Inhibition of human glucocorticoid receptor alpha isoform
T1 sequence (P04150 whole entry): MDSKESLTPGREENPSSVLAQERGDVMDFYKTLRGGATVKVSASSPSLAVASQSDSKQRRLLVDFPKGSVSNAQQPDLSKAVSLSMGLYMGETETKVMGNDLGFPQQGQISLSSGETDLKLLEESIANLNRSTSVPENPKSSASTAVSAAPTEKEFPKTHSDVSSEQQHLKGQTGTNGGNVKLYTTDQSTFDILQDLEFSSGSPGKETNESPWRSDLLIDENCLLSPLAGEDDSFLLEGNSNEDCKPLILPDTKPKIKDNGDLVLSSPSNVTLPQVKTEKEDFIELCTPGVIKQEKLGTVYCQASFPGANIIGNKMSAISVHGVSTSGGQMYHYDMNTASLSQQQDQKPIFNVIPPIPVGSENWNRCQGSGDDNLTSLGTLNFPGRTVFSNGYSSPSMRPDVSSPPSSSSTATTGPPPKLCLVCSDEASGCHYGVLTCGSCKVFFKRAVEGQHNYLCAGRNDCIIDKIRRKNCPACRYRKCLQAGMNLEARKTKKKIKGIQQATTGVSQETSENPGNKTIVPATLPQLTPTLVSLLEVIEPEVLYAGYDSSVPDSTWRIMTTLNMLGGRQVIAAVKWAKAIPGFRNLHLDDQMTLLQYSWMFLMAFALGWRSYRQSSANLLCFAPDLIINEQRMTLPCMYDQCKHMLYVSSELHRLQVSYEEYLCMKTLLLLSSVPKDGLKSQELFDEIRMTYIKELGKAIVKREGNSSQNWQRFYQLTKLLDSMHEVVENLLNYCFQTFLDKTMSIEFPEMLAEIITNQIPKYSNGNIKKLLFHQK

[4] = tested on: A549; experiment: Effective concentration for inhibition of interleukin-6 in human A549 lung carcinoma cell line using […]% radiolabeled Dexamethasone; format: functional, cell-based
[5] = tested on: Mus musculus; experiment: Inhibition of LPS induced TNF-alpha secretion in mouse at an oral dose of 30 mg/kg relative to that produced by Dexamethasone at a dose of 0.3 mg/kg; format: functional
[6] = species on record: Mus musculus; experiment: Effective concentration required for inhibition of interleukin-6 in mouse thioglycolate-elicited peritoneal exudate cell line using 62% radiolabeled Dexamethasone; format: functional
[7] = tested on: A549; experiment: Effective concentration for inhibition of interleukin-6 in human A549 lung carcinoma cell line using 75% radiolabeled Dexamethasone; format: functional, cell-based
[8] = species on record: Mus musculus; experiment: Effective concentration required for interleukin-6 transrepression in peritoneal exudate cells of C57B1/6 mouse using 62% Dexamethasone; format: functional, cell-based
[9] = species on record: Mus musculus; experiment: Effective concentration required for inhibition of interleukin-6 in mouse thioglycolate-elicited peritoneal exudate cell line using 81% radiolabeled Dexamethasone; format: functional
[10] = tested on: A549; experiment: Effective concentration for inhibition of interleukin-6 in human A549 lung carcinoma cell line using 65% radiolabeled Dexamethasone; format: functional, cell-based
[11] = target: T2, Mineralocorticoid receptor (Rattus norvegicus, UniProt P22199); experiment: Binding affinity for rat mineralocorticoid receptor
T2 sequence (P22199 whole entry): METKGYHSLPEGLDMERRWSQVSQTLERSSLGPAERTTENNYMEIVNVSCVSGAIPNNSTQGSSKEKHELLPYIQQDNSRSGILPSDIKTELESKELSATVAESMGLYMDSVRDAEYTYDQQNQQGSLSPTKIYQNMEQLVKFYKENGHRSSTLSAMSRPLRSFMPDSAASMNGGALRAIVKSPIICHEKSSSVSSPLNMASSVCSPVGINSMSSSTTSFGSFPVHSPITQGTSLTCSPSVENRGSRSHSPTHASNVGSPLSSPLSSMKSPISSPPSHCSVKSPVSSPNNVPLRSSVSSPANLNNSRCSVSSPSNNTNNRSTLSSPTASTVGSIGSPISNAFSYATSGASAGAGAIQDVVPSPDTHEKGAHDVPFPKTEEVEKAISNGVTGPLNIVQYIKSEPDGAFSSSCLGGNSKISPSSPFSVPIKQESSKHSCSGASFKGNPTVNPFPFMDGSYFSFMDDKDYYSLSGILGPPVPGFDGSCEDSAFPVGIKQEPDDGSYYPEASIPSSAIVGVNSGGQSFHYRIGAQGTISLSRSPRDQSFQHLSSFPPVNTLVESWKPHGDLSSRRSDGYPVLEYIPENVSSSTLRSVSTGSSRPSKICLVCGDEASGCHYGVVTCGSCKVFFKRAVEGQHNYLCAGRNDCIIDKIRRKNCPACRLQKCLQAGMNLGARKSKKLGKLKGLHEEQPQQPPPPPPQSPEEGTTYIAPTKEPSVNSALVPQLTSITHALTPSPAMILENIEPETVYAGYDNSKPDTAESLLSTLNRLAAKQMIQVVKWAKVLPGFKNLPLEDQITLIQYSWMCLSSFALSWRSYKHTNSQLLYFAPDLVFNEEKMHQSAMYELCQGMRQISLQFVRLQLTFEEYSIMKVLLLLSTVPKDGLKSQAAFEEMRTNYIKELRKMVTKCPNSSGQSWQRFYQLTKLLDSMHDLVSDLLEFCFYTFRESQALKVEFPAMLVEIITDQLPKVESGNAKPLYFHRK

[12] = target: Estrogen receptor beta (Homo sapiens, UniProt Q92731); experiment: Binding affinity for human estrogen receptor beta
[13] = target: T3, Progesterone receptor (Homo sapiens, UniProt P06401); experiment: Binding affinity for human progesterone receptor
T3 sequence (P06401 whole entry): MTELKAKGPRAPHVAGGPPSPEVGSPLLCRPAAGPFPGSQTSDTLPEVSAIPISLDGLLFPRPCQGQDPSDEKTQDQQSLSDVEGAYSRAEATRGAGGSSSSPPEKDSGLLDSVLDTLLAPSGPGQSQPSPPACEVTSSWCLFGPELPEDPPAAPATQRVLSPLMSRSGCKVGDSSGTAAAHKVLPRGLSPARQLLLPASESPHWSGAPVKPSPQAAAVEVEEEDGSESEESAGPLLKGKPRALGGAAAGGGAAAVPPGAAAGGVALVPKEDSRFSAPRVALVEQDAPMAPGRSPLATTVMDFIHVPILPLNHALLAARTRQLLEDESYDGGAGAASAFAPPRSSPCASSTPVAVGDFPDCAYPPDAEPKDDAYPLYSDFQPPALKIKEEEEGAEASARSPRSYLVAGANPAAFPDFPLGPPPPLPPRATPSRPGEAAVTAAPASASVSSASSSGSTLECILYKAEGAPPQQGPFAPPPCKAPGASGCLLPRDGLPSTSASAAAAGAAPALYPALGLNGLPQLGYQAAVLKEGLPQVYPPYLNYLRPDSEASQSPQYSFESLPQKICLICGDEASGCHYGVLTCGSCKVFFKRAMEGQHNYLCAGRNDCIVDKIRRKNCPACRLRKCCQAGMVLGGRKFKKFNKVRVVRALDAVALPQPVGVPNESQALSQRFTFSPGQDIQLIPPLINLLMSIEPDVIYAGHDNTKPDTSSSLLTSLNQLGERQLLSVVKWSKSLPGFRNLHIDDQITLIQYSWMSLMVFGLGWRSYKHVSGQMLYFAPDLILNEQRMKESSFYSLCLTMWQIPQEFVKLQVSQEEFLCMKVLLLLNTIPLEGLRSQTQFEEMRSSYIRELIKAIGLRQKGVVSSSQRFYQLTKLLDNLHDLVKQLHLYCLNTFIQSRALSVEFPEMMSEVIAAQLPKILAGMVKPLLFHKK

[14] = target: T1, Glucocorticoid receptor; experiment: Binding affinity for human glucocorticoid receptor
[15] = target: T4, Estrogen receptor (Homo sapiens, UniProt P03372); experiment: Binding affinity for human estrogen receptor alpha
T4 sequence (P03372 whole entry): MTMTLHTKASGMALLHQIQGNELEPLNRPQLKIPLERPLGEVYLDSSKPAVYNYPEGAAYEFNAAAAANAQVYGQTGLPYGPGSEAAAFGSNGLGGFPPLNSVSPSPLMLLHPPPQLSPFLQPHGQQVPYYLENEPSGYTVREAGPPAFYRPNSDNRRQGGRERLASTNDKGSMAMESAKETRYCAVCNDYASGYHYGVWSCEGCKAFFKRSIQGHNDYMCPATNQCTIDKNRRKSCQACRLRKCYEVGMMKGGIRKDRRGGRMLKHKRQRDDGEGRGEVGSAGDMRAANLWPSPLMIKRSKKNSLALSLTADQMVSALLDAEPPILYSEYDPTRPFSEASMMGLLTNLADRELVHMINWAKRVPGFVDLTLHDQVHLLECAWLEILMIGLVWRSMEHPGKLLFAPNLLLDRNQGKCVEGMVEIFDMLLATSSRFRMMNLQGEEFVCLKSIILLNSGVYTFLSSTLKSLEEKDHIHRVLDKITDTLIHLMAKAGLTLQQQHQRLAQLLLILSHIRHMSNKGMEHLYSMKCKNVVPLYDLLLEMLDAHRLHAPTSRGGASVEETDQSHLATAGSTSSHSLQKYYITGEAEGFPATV

[16] = Effective concentration required for induction of glutamine synthetase in human skeletal muscle cells using 97% radiolabeled Dexamethasone; format: functional
[17] = species on record: Mus musculus; experiment: Effective concentration required for inhibition of interleukin-6 in mouse thioglycolate-elicited peritoneal exudate cell line using 95% radiolabeled Dexamethasone; format: functional
[18] = tested on: HepG2; experiment: Effective concentration required for induction of tyrosine aminotransferase in human HepG2 cells using 81% radiolabeled Dexamethasone; format: functional, cell-based
[19] = tested on: A549; experiment: Effective concentration required for inhibition of interleukin-6 in human A549 lung carcinoma cell line using 102% radiolabeled Dexamethasone; format: functional, cell-based
[20] = tested on: A549; experiment: Effective concentration for inhibition of interleukin-6 in human A549 lung carcinoma cell line using 69% radiolabeled Dexamethasone; format: functional, cell-based

Chain of Estrogen receptor beta (Q92731 whole entry): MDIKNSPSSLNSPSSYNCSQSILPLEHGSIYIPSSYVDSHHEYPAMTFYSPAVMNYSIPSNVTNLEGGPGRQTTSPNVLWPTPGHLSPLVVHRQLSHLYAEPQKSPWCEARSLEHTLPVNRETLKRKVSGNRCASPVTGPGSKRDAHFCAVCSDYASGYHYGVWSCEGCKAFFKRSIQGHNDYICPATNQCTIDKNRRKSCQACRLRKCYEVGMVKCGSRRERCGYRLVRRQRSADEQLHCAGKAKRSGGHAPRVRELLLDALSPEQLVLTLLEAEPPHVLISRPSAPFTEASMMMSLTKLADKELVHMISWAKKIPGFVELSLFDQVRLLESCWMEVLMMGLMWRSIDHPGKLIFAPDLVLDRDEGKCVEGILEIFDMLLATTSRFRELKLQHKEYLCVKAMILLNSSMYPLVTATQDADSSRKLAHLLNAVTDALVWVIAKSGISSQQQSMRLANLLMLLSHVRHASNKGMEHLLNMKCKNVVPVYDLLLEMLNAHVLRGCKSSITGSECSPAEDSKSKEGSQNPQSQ

EC50 [1]: 78 nM
EC50 [2]: 19 nM
IC50 [3]: 5.5 nM
SMILES: CC[C@H]1OC2(CCCC3=Cc4c(cnn4-c4ccc(F)cc4)C[C@@]32C)O[C@@H]1CC

IC50 [3]: 49 nM
SMILES: C=C[C@H]1CO[C@@]2(CCC3=Cc4c(cnn4-c4ccc(F)cc4)C[C@@]32C)O1

EC50 [4]: 12 nM
IC50 [3]: 28 nM
SMILES: CC1(C)COC2(CCC3=Cc4c(cnn4-c4ccc(F)cc4)C[C@@]32C)OC1

IC50 [3]: 12 nM
SMILES: C[C@]12Cc3cnn(-c4ccc(F)cc4)c3C=C1CC[C@]21OC[C@H](c2ccccc2)O1

EC50 [6]: 36 nM
EC50 [7]: 24 nM
EC50 [8]: 36 nM
IC50 [3]: 6.6 nM
SMILES: CC[C@H]1OC2(CCC3=Cc4c(cnn4-c4ccc(F)cc4)C[C@@]32C)O[C@@H]1CC
Inhibition [5]: 97.8%

IC50 [3]: 10 nM
SMILES: C[C@H]1OC2(CCCC3=Cc4c(cnn4-c4ccc(F)cc4)C[C@@]32C)O[C@@H]1C

SMILES: C=C[C@H]1OC2(CCCC3=Cc4c(cnn4-c4ccc(F)cc4)C[C@@]32C)O[C@@H]1C=C
EC50 [9]: 8.7 nM
EC50 [10]: 5.3 nM
IC50 [11]: 7400 nM
IC50 [12]: > 10000 nM
IC50 [13]: > 1000 nM
IC50 [14]: 1.2 nM
IC50 [15]: > 10000 nM
IC50 [3]: 1.2 nM

EC50 [16]: 32 nM
EC50 [17]: 5.7 nM
EC50 [18]: 211 nM
EC50 [19]: 4.5 nM
IC50 [3]: 13.8 nM
SMILES: C[C@]12Cc3cnn(-c4ccc(F)cc4)c3C=C1CCC21OCCO1 (stereo in doubt; 2)

IC50 [11]: > 10000 nM
IC50 [12]: > 10000 nM
IC50 [13]: > 1000 nM
EC50 [20]: 28 nM
IC50 [14]: 73 nM
IC50 [15]: > 10000 nM
IC50 [3]: 73 nM
SMILES: C[C@]12Cc3cnn(-c4ccc(F)cc4)c3C=C1CCC21OCCO1 (stereo in doubt; 13)

IC50 [3]: 8.4 nM
SMILES: C[C@@H]1C[C@@H](C)OC2(CCC3=Cc4c(cnn4-c4ccc(F)cc4)C[C@@]32C)O1 (stereo in doubt; form 2)

Source: ChEMBL document CHEMBL1139605, “Novel ketal ligands for the glucocorticoid receptor: in vitro and in vivo activity” (Bioorg Med Chem Lett, 2005)
